Results from PubChem BioAssay (NCI).
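GI50 marks 50% less growth. TGI: concentration producing complete growth inhibition.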

Assays:
Assay in all cases: inhibition of tumour cell growth, NCI panel, 384-well format
786-0 renal = system: 786-0 renal
A498 renal = system: A498 renal
A549 NSCLC = system: A549 NSCLC
ACHN renal = system: ACHN renal
BT-549 breast = system: BT-549 breast
CAKI-1 renal = system: CAKI-1 renal
CCRF-CEM leukemia = system: CCRF-CEM leukemia
COLO 205 colon = system: COLO 205 colon
DU-145 prostate = system: DU-145 prostate
EKVX NSCLC = system: EKVX NSCLC
HCC-2998 colon = system: HCC-2998 colon
HCT-116 colon = system: HCT-116 colon
HCT-15 colon = system: HCT-15 colon
HL-60(TB) leukemia = system: HL-60(TB) leukemia
HOP-62 NSCLC = system: HOP-62 NSCLC
HOP-92 NSCLC = system: HOP-92 NSCLC
HS 578T breast = system: HS 578T breast
HT29 colon = system: HT29 colon
IGROV1 ovarian = system: IGROV1 ovarian
K-562 leukemia = system: K-562 leukemia
KM12 colon = system: KM12 colon
LOX IMVI melanoma = system: LOX IMVI melanoma
M14 melanoma = system: M14 melanoma
MALME-3M melanoma = system: MALME-3M melanoma
MCF7 breast = system: MCF7 breast
MDA-MB-231 breast = system: MDA-MB-231 breast
MDA-MB-435 melanoma = system: MDA-MB-435 melanoma
MDA-MB-468 breast = system: MDA-MB-468 breast
MOLT-4 leukemia = system: MOLT-4 leukemia
NCI-H226 lung = system: NCI-H226 lung
NCI-H23 lung = system: NCI-H23 lung
NCI-H322M lung = system: NCI-H322M lung
NCI-H460 NSCLC = system: NCI-H460 NSCLC
NCI-H522 lung = system: NCI-H522 lung
NCI/ADR-RES ovarian = system: NCI/ADR-RES ovarian
OVCAR-3 ovarian = system: OVCAR-3 ovarian
OVCAR-4 ovarian = system: OVCAR-4 ovarian
OVCAR-5 ovarian = system: OVCAR-5 ovarian
OVCAR-8 ovarian = system: OVCAR-8 ovarian
PC-3 prostate = system: PC-3 prostate
RPMI-8226 leukemia = system: RPMI-8226 leukemia
RXF 393 renal = system: RXF 393 renal
SF-268 CNS = system: SF-268 CNS
SF-295 CNS = system: SF-295 CNS
SF-539 CNS = system: SF-539 CNS
SK-MEL-28 melanoma = system: SK-MEL-28 melanoma
SK-MEL-5 melanoma = system: SK-MEL-5 melanoma
SK-OV-3 ovarian = system: SK-OV-3 ovarian
SN12C renal = system: SN12C renal
SNB-19 CNS = system: SNB-19 CNS
SNB-75 CNS = system: SNB-75 CNS
SR leukemia = system: SR leukemia
SW-620 colon = system: SW-620 colon
T-47D breast = system: T-47D breast
TK-10 renal = system: TK-10 renal
U251 glioblastoma = system: U251 glioblastoma
UACC-257 melanoma = system: UACC-257 melanoma
UO-31 renal = system: UO-31 renal

Q: How did the GI50 ([…]-0 renal) turn out when `COc1cccc2cc(-c3nc(C4CCC(C(=O)O)CC4)n4ncnc(N)c34)[nH]c12` (stereo unspecified) was run?
A: 3.33 µM

Q: What about the TGI (786-0 renal) of the same compound?
A: 19.5 µM

Q: What about the GI50 (A498 renal) of the same compound?
A: 0.539 µM

Q: What about the TGI (A498 renal) of the same compound?
A: 4.25 µM

Q: What about the GI50 (A549 NSCLC) of the same compound?
A: 2.9 µM

Q: What about the TGI (A549 NSCLC) of the same compound?
A: 27.9 µM

Q: And the GI50 (ACHN renal)?
A: 1.18 µM

Q: What about the TGI (ACHN renal) of the same compound?
A: 13 µM

Q: And the GI50 (BT-549 breast)?
A: 1.17 µM

Q: And the TGI (BT-549 breast)?
A: 5.36 µM

Q: And the GI50 (CAKI-1 renal)?
A: 1.59 µM

Q: And the TGI (CAKI-1 renal)?
A: 8.1 µM

Q: And the GI50 (CCRF-CEM leukemia)?
A: 0.738 µM

Q: And the TGI (CCRF-CEM leukemia)?
A: 10.5 µM

Q: And the GI50 (COLO 205 colon)?
A: 1.18 µM

Q: What about the TGI (COLO 205 colon) of the same compound?
A: 26.6 µM

Q: What about the GI50 (DU-145 prostate) of the same compound?
A: 3.71 µM

Q: What about the TGI (DU-145 prostate) of the same compound?
A: > 100 µM

Q: What about the GI50 (EKVX NSCLC) of the same compound?
A: 1.1 µM

Q: What about the TGI (EKVX NSCLC) of the same compound?
A: 11.6 µM

Q: And the GI50 (HCC-2998 colon)?
A: 5.76 µM

Q: What about the TGI (HCC-2998 colon) of the same compound?
A: 44.1 µM

Q: And the GI50 (HCT-116 colon)?
A: 4.13 µM

Q: What about the TGI (HCT-116 colon) of the same compound?
A: 62.4 µM

Q: And the GI50 (HCT-15 colon)?
A: 1.36 µM

Q: And the TGI (HCT-15 colon)?
A: 57 µM

Q: And the GI50 (HL-60(TB) leukemia)?
A: 11.3 µM

Q: What about the TGI (HL-60(TB) leukemia) of the same compound?
A: 23.8 µM

Q: What about the GI50 (HOP-62 NSCLC) of the same compound?
A: 1.11 µM

Q: What about the TGI (HOP-62 NSCLC) of the same compound?
A: 5.42 µM

Q: What about the GI50 (HOP-92 NSCLC) of the same compound?
A: 1 µM

Q: And the TGI (HOP-92 NSCLC)?
A: 8.38 µM

Q: What about the GI50 (HS 578T breast) of the same compound?
A: 0.302 µM

Q: What about the TGI (HS 578T breast) of the same compound?
A: 1.59 µM

Q: What about the GI50 (HT29 colon) of the same compound?
A: 8.51 µM

Q: And the TGI (HT29 colon)?
A: > 100 µM

Q: What about the GI50 (IGROV1 ovarian) of the same compound?
A: 0.36 µM

Q: And the TGI (IGROV1 ovarian)?
A: 4.38 µM

Q: And the GI50 (K-562 leukemia)?
A: 2.61 µM

Q: And the TGI (K-562 leukemia)?
A: 38 µM

Q: What about the GI50 (KM12 colon) of the same compound?
A: 0.964 µM

Q: What about the TGI (KM12 colon) of the same compound?
A: > 100 µM

Q: What about the GI50 (LOX IMVI melanoma) of the same compound?
A: 2.69 µM

Q: What about the TGI (LOX IMVI melanoma) of the same compound?
A: 10.3 µM

Q: What about the GI50 (M14 melanoma) of the same compound?
A: 0.727 µM

Q: What about the TGI (M14 melanoma) of the same compound?
A: 15.6 µM

Q: What about the GI50 (MALME-3M melanoma) of the same compound?
A: 0.19 µM

Q: What about the TGI (MALME-3M melanoma) of the same compound?
A: 0.878 µM

Q: And the GI50 (MCF7 breast)?
A: 0.229 µM

Q: What about the TGI (MCF7 breast) of the same compound?
A: > 100 µM

Q: And the GI50 (MDA-MB-231 breast)?
A: 0.811 µM

Q: And the TGI (MDA-MB-231 breast)?
A: > 100 µM

Q: And the GI50 (MDA-MB-435 melanoma)?
A: 2.39 µM

Q: What about the TGI (MDA-MB-435 melanoma) of the same compound?
A: 11.4 µM

Q: What about the GI50 (MDA-MB-468 breast) of the same compound?
A: 0.21 µM

Q: And the TGI (MDA-MB-468 breast)?
A: 1.52 µM

Q: What about the GI50 (MOLT-4 leukemia) of the same compound?
A: 0.651 µM

Q: What about the TGI (MOLT-4 leukemia) of the same compound?
A: 10.2 µM

Q: And the GI50 (NCI-H226 lung)?
A: 1.15 µM

Q: And the TGI (NCI-H226 lung)?
A: 6.68 µM

Q: What about the GI50 (NCI-H23 lung) of the same compound?
A: 2.3 µM

Q: And the TGI (NCI-H23 lung)?
A: 15 µM

Q: What about the GI50 (NCI-H322M lung) of the same compound?
A: 0.426 µM

Q: What about the TGI (NCI-H322M lung) of the same compound?
A: 21.5 µM

Q: And the GI50 (NCI-H460 NSCLC)?
A: 0.39 µM

Q: And the TGI (NCI-H460 NSCLC)?
A: 13 µM

Q: And the GI50 (NCI-H522 lung)?
A: 0.4 µM

Q: What about the TGI (NCI-H522 lung) of the same compound?
A: > 100 µM

Q: And the GI50 (NCI/ADR-RES ovarian)?
A: 2.45 µM

Q: And the TGI (NCI/ADR-RES ovarian)?
A: 17 µM

Q: What about the GI50 (OVCAR-3 ovarian) of the same compound?
A: 0.442 µM

Q: And the TGI (OVCAR-3 ovarian)?
A: 11.4 µM

Q: And the GI50 (OVCAR-4 ovarian)?
A: 1.25 µM

Q: And the TGI (OVCAR-4 ovarian)?
A: 5.75 µM

Q: And the GI50 (OVCAR-5 ovarian)?
A: 3.09 µM

Q: And the TGI (OVCAR-5 ovarian)?
A: 67.5 µM

Q: What about the GI50 (OVCAR-8 ovarian) of the same compound?
A: 2.31 µM

Q: And the TGI (OVCAR-8 ovarian)?
A: 49.5 µM

Q: And the GI50 (PC-3 prostate)?
A: 0.56 µM

Q: What about the TGI (PC-3 prostate) of the same compound?
A: 5.83 µM

Q: And the GI50 (RPMI-8226 leukemia)?
A: 0.161 µM

Q: What about the TGI (RPMI-8226 leukemia) of the same compound?
A: 0.542 µM

Q: What about the GI50 (RXF 393 renal) of the same compound?
A: 1.49 µM

Q: And the TGI (RXF 393 renal)?
A: 6.54 µM

Q: And the GI50 (SF-268 CNS)?
A: 2.3 µM

Q: What about the TGI (SF-268 CNS) of the same compound?
A: 31.3 µM

Q: What about the GI50 (SF-295 CNS) of the same compound?
A: 1.16 µM

Q: And the TGI (SF-295 CNS)?
A: 4.99 µM

Q: And the GI50 (SF-539 CNS)?
A: 1.76 µM

Q: What about the TGI (SF-539 CNS) of the same compound?
A: 10.4 µM

Q: And the GI50 (SK-MEL-28 melanoma)?
A: 0.453 µM

Q: What about the TGI (SK-MEL-28 melanoma) of the same compound?
A: 7.41 µM

Q: And the GI50 (SK-MEL-5 melanoma)?
A: 0.518 µM

Q: What about the TGI (SK-MEL-5 melanoma) of the same compound?
A: 2.18 µM

Q: What about the GI50 (SK-OV-3 ovarian) of the same compound?
A: 1.44 µM

Q: And the TGI (SK-OV-3 ovarian)?
A: 26.8 µM

Q: And the GI50 (SN12C renal)?
A: 0.941 µM

Q: What about the TGI (SN12C renal) of the same compound?
A: > 100 µM

Q: What about the GI50 (SNB-19 CNS) of the same compound?
A: 8.96 µM

Q: What about the TGI (SNB-19 CNS) of the same compound?
A: > 100 µM

Q: And the GI50 (SNB-75 CNS)?
A: 0.382 µM

Q: What about the TGI (SNB-75 CNS) of the same compound?
A: 2.81 µM

Q: What about the GI50 (SR leukemia) of the same compound?
A: 0.293 µM

Q: And the TGI (SR leukemia)?
A: 1.25 µM

Q: What about the GI50 (SW-620 colon) of the same compound?
A: 4.22 µM

Q: What about the TGI (SW-620 colon) of the same compound?
A: > 100 µM

Q: And the GI50 (T-47D breast)?
A: 0.158 µM

Q: What about the TGI (T-47D breast) of the same compound?
A: 0.725 µM

Q: What about the GI50 (TK-10 renal) of the same compound?
A: 1.75 µM

Q: What about the TGI (TK-10 renal) of the same compound?
A: 11 µM

Q: And the GI50 (U251 glioblastoma)?
A: 4.36 µM

Q: What about the TGI (U251 glioblastoma) of the same compound?
A: > 100 µM

Q: What about the GI50 (UACC-257 melanoma) of the same compound?
A: 3.13 µM

Q: And the TGI (UACC-257 melanoma)?
A: 27 µM

Q: What about the GI50 (UO-31 renal) of the same compound?
A: 0.919 µM

Q: What about the TGI (UO-31 renal) of the same compound?
A: 15.8 µM
